Assay results published in PubChem BioAssay AID264 (DTP/NCI, 2004).
Where “and” joins values, the source holds several entries; their conditions need not be identical. Identical values can stand only once. Results filed as inconclusive are left out. Peptide text beside a SMILES is read from it. * marks the point of attachment. Trt = c1ccc(C(c2ccccc2)(c2ccccc2)*)cc1; Cbz = O=C(OCc1ccccc1)*

Test system: nude mice, LX-1 lung xenograft intrarenal, tumor weight T/C
Experiment: NCI In Vivo Anticancer Drug Screen. Data for tumor model Human Lung LX-1 Xenograft (intrarenal inoculation) in NU/NU Swiss (nude) mice
Details: endpoint: mean tumor weight change, higher = larger tumour
Outline: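 Compound-treated mice carrying transplanted tumors were compared with vehicle-treated controls. Tumor size was the measured end point, and the value is the treated-group measurement divided by the control-group measurement (T/C).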

[1] = dose: 50.0 mg/kg/injection, schedule: Q04DX003 (sc), vehicle: saline
[2] = dose: 2.0 mg/kg/injection, schedule: Q01DX010 (sc), vehicle: water
[3] = dose: 100.0 mg/kg/injection, schedule: Q01DX010 (sc), vehicle: Klucel (hydroxypropylcellulose) (HPC)
[4] = dose: 400.0 mg/kg/injection, schedule: Q01DX010 (sc), vehicle: Klucel (hydroxypropylcellulose) (HPC)
[5] = dose: 300.0 mg/kg/injection, schedule: Q04DX003 (sc), vehicle: Klucel (hydroxypropylcellulose) (HPC)
[6] = dose: 600.0 mg/kg/injection, schedule: Q04DX003 (sc), vehicle: Klucel (hydroxypropylcellulose) (HPC)
[7] = dose: 1200.0 mg/kg/injection, schedule: Q04DX003 (sc), vehicle: Klucel (hydroxypropylcellulose) (HPC)
[8] = dose: 300.0 mg/kg/injection, schedule: Q04DX003 (sc), vehicle: saline with Tween-80
[9] = dose: 600.0 mg/kg/injection, schedule: Q04DX003 (sc), vehicle: saline with Tween-80
[10] = dose: 1200.0 mg/kg/injection, schedule: Q04DX003 (sc), vehicle: saline with Tween-80

## O=C1c2ccccc2C(=O)c2c(NCCNCCO)ccc(O)c21
dose: 12.5 mg/kg/injection, schedule: Q04DX003 (sc), vehicle: suspension in saline
  T/C: 94 % of control
dose: 25.0 mg/kg/injection, schedule: Q04DX003 (sc), vehicle: saline
  T/C: 90 % of control
dose: 25.0 mg/kg/injection, schedule: Q04DX003 (sc), vehicle: suspension in saline
  T/C: 108 % of control
[1]
  T/C: 74 % of control
dose: 50.0 mg/kg/injection, schedule: Q04DX003 (sc), vehicle: suspension in saline
  T/C: 90 % of control
dose: 100.0 mg/kg/injection, schedule: Q04DX003 (sc), vehicle: saline
  T/C: 61 % of control
dose: 100.0 mg/kg/injection, schedule: Q04DX003 (sc), vehicle: suspension in saline
  T/C: 92 % of control
dose: 200.0 mg/kg/injection, schedule: Q04DX003 (sc), vehicle: saline
  T/C: 93 % of control

## COc1cccc2c1C(=O)c1c(O)c3c(c(O)c1C2=O)C[C@@](O)(C(C)=O)C[C@@H]3OC1CC(N(C)C)C(O)C(C)O1 (some centres undefined)
[2]
  T/C: 200 % of control
dose: 4.0 mg/kg/injection, schedule: Q01DX010 (sc), vehicle: water
  T/C: 80 % of control
dose: 6.0 mg/kg/injection, schedule: Q04DX003 (sc), vehicle: water
  T/C: 59 % of control
dose: 12.0 mg/kg/injection, schedule: Q04DX003 (sc), vehicle: water
  T/C: 88 % of control

## O=c1[nH]cnc2c1ccn2C1OC(CO)C(O)C1O (centres undefined)
dose: 12.5 mg/kg/injection, schedule: Q04DX003 (sc), vehicle: saline
  T/C: 88 % of control
[1]
  T/C: 47 % of control

## O=C(O)C1CC(c2ccccc2)=NN1c1ccccc1 (centres undefined)
dose: 150.0 mg/kg/injection, schedule: Q04DX003 (sc), vehicle: water
  T/C: 105 % of control

## N#CC(C#N)=C/C=C/c1cccc([N+](=O)[O-])c1
dose: 25.0 mg/kg/injection, schedule: Q01DX010 (sc), vehicle: Klucel (hydroxypropylcellulose) (HPC)
  T/C: 90 % of control
dose: 50.0 mg/kg/injection, schedule: Q01DX010 (sc), vehicle: Klucel (hydroxypropylcellulose) (HPC)
  T/C: 83 % of control
[3]
  T/C: 69 % of control
[4]
  T/C: 84 % of control
dose: 800.0 mg/kg/injection, schedule: Q01DX010 (sc), vehicle: Klucel (hydroxypropylcellulose) (HPC)
  T/C: 42 % of control

## S=C(Nc1ccc(Cl)c(Cl)c1)N1c2ccccc2-n2cccc2C1c1cccnc1 (centres undefined)
[5]
  T/C: 58 % of control
[6]
  T/C: 104 % of control
[7]
  T/C: 71 % of control
dose: 2400.0 mg/kg/injection, schedule: Q04DX003 (sc), vehicle: Klucel (hydroxypropylcellulose) (HPC)
  T/C: 65 % of control

## CCOC(=O)C1(c2ccccc2)C(=O)Oc2ccccc21 (centres undefined)
[8]
  T/C: 54 % of control
[9]
  T/C: 103 % of control
[10]
  T/C: 73 % of control
dose: 2400.0 mg/kg/injection, schedule: Q04DX003 (sc), vehicle: saline with Tween-80
  T/C: 74 % of control

## COc1cc2cc[n+](C)c(Cc3ccccc3)c2cc1OC
dose: 37.5 mg/kg/injection, schedule: Q04DX003 (sc), vehicle: Klucel (hydroxypropylcellulose) (HPC)
  T/C: 88 % of control
dose: 75.0 mg/kg/injection, schedule: Q04DX003 (sc), vehicle: Klucel (hydroxypropylcellulose) (HPC)
  T/C: 115 % of control

## COc1cccc2c1C(=O)c1c(O)c3c(c(O)c1C2=O)C[C@H](O)C[C@@H]3OC1CC(N)C(O)C(C)O1 (some centres undefined)
dose: 6.25 mg/kg/injection, schedule: Q01DX010 (sc), vehicle: saline
  T/C: 25 % of control
dose: 12.5 mg/kg/injection, schedule: Q01DX010 (sc), vehicle: saline
  T/C: 336 % of control
dose: 25.0 mg/kg/injection, schedule: Q01DX010 (sc), vehicle: saline
  T/C: 101 % of control

## COC(=O)C(CSC(c1ccccc1)(c1ccccc1)c1ccccc1)NC(=O)C(CC(N)=O)NC(=O)OCc1ccccc1 (stereo not drawn) (Cbz-Asn-Cys(Trt)-OMe; configuration not given here)
dose: 300.0 mg/kg/injection, schedule: Q04DX003 (sc), vehicle: distilled water + Tween-80
  T/C: 79 % of control
dose: 1200.0 mg/kg/injection, schedule: Q04DX003 (sc), vehicle: distilled water + Tween-80
  T/C: 105 % of control
dose: 2400.0 mg/kg/injection, schedule: Q04DX003 (sc), vehicle: distilled water + Tween-80
  T/C: 116 % of control

## COc1c(CNC(=O)CCl)cc2[nH]c(C)cc2c1CNC(=O)CCl
[3]
  T/C: 76 % of control
dose: 200.0 mg/kg/injection, schedule: Q01DX010 (sc), vehicle: Klucel (hydroxypropylcellulose) (HPC)
  T/C: 52 % of control
[5]
  T/C: 91 % of control
[4]
  T/C: 37 % of control
[6]
  T/C: 90 % of control
[7]
  T/C: 68 % of control

## CS(=O)(=O)CS(=O)(=O)OCCCl
dose: 150.0 mg/kg/injection, schedule: Q04DX003 (sc), vehicle: suspension in saline
  T/C: 94 % of control

## CNc1nc(N(C)C)nc(N(C)C)n1
dose: 12.5 mg/kg/injection, schedule: Q04DX003 (sc), vehicle: water
  T/C: 177 % of control
dose: 15.0 mg/kg/injection, schedule: Q01DX010 (ip), vehicle: water
  T/C: 55 % of control
dose: 15.0 mg/kg/injection, schedule: Q01DX010 (sc), vehicle: water
  T/C: 121 % of control
dose: 30.0 mg/kg/injection, schedule: Q01DX010 (ip), vehicle: water
  T/C: 287 % of control
dose: 30.0 mg/kg/injection, schedule: Q01DX010 (sc), vehicle: water
  T/C: 56 % of control
dose: 50.0 mg/kg/injection, schedule: Q04DX003 (ip), vehicle: water
  T/C: 67 % of control
dose: 60.0 mg/kg/injection, schedule: Q01DX010 (ip), vehicle: water
  T/C: 71 % of control
dose: 60.0 mg/kg/injection, schedule: Q01DX010 (sc), vehicle: water
  T/C: 69 % of control
dose: 100.0 mg/kg/injection, schedule: Q04DX003 (ip), vehicle: water
  T/C: 59 % of control
dose: 100.0 mg/kg/injection, schedule: Q04DX003 (sc), vehicle: water
  T/C: 114 % of control and 218 % of control
dose: 120.0 mg/kg/injection, schedule: Q01DX010 (sc), vehicle: water
  T/C: 64 % of control
dose: 200.0 mg/kg/injection, schedule: Q04DX003 (ip), vehicle: water
  T/C: 54 % of control

## CCOC(=O)CNC(=O)Sc1ccc(C(C)(C)C)cc1
dose: 150.0 mg/kg/injection, schedule: Q04DX003 (sc), vehicle: Klucel (hydroxypropylcellulose) (HPC)
  T/C: 89 % of control
[5]
  T/C: 99 % of control
[6]
  T/C: 76 % of control
[7]
  T/C: 95 % of control

## O=[N+]([O-])c1ccc(N2CCOCC2)c2c1no[n+]2[O-]
dose: 150.0 mg/kg/injection, schedule: Q04DX003 (sc), vehicle: saline with Tween-80
  T/C: 101 % of control
[8]
  T/C: 57 % of control
[9]
  T/C: 77 % of control
[10]
  T/C: 98 % of control

## O=C(O)CC(=O)O.[NH-]CC[NH-].[Pt+2]
dose: 12.5 mg/kg/injection, schedule: Q01DX010 (sc), vehicle: dextrose
  T/C: 100 % of control
dose: 25.0 mg/kg/injection, schedule: Q01DX010 (sc), vehicle: dextrose
  T/C: 74 % of control
dose: 50.0 mg/kg/injection, schedule: Q01DX010 (sc), vehicle: dextrose
  T/C: 74 % of control

## CC[C@@]1(O)C[C@H](OC2CC(N(C)C)C(OC3CC(O)C(OC4CCC(=O)C(C)O4)C(C)O3)C(C)O2)c2c(cc3c(c2O)C(=O)c2c(O)cccc2C3=O)[C@H]1C(=O)OC (some centres undefined)
dose: 0.5 mg/kg/injection, schedule: Q01DX010 (sc), vehicle: water
  T/C: 105 % of control
dose: 1.0 mg/kg/injection, schedule: Q01DX010 (sc), vehicle: water
  T/C: 69 % of control
dose: 1.66 mg/kg/injection, schedule: Q04DX003 (ip), vehicle: water
  T/C: 24 % of control
[2]
  T/C: 83 % of control
dose: 3.33 mg/kg/injection, schedule: Q04DX003 (ip), vehicle: water
  T/C: 22 % of control

## c1ccc2c(NCCCCCCNc3c4ccccc4nc4ccccc34)c3ccccc3nc2c1
dose: 5.0 mg/kg/injection, schedule: Q01DX010 (sc), vehicle: Klucel (hydroxypropylcellulose) (HPC)
  T/C: 102 % of control

## O=c1nc(Oc2ccccc2)nc2ncccn12
dose: 25.0 mg/kg/injection, schedule: Q01DX010 (sc), vehicle: saline with Tween-80
  T/C: 190 % of control
dose: 50.0 mg/kg/injection, schedule: Q01DX010 (sc), vehicle: saline with Tween-80
  T/C: 165 % of control
dose: 100.0 mg/kg/injection, schedule: Q01DX010 (sc), vehicle: saline with Tween-80
  T/C: 118 % of control
dose: 200.0 mg/kg/injection, schedule: Q01DX010 (sc), vehicle: saline with Tween-80
  T/C: 210 % of control

## Cn1cc(C2NC(=O)c3ccccc3N2)c2ccccc21 (centres undefined)
[5]
  T/C: 31 % of control
[6]
  T/C: 32 % of control
[7]
  T/C: -36 % of control
